The assay addresses Prostacyclin receptor (Rattus norvegicus) (UniProt P43253). Nature of the assay: Binding affinity towards prostacyclin receptor on rat NG-108-15 neuroblastoma cells, using [3H]iloprost as a radioligand.
Chain of Prostacyclin receptor (Rattus norvegicus) (P43253 whole entry, looked up): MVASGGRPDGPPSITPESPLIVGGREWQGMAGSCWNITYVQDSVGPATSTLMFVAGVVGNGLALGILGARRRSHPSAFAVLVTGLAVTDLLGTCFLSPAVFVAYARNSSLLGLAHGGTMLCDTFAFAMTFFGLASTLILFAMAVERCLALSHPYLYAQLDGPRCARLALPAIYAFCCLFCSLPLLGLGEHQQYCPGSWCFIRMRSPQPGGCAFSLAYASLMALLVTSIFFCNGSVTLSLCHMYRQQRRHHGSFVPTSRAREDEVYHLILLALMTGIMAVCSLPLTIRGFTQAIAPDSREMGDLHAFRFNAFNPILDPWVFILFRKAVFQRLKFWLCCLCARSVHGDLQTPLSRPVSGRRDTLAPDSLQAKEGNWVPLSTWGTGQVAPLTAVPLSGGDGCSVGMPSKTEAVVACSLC
By Ki is commonly meant a dissociation constant, usually derived from enzyme kinetics or from competition with a known ligand. A high value points to a looser hold on the target. `Cc1ccc(Sc2ccc(NC3=NCCN3)cc2)cc1` returned a Ki of 100 nM.
Turning to `COc1ccc(C(=O)c2ccc(NC3=NCCN3)cc2)cc1`, the Ki was 316 nM.
`COc1ccc(Sc2ccc(NC3=NC(C)CN3)cc2)cc1` (configuration not stated) registered a Ki of 63 nM. This Ki is about 5-fold lower than that of the molecule before.
The molecule `c1ccc(Sc2ccc(NC3=NCCN3)cc2)cc1` returned a Ki of 794 nM.
The value for `COc1ccc(N(C)c2ccc(NC3=NCCN3)cc2)cc1` was 501 nM.
In turn, `Clc1cccc(Cl)c1Sc1ccc(NC2=NCCN2)cc1` showed a Ki of 631 nM.
As to `c1cc(Sc2ccc3c(c2)OCCO3)ccc1NC1=NCCN1`, affinity was put at a Ki of 631 nM. In other words, the sub-micromolar range.
`c1cc(SC2CCCCC2)ccc1NC1=NCCN1` registered a Ki of 3160 nM.
The value for `CC/N=C(\N)Nc1ccc(Sc2ccc(OC)cc2)cc1` was 251 nM; that for `COc1ccc(Sc2ccc(CN3CCCC3)cc2)cc1` was 10000 nM; that for `COc1ccc(S(=O)(=O)c2ccc(NC3=NCCN3)cc2)cc1` was 158 nM.
As to `COc1ccc(Cc2ccc(NC3=NCCN3)cc2)cc1`, the Ki was determined as 25 nM.
For the molecule `COc1ccccc1Sc1ccc(NC2=NCCN2)cc1`, the inhibition constant (Ki) is 3980 nM.
`COc1ccc(Sc2ccc(C3=NCCN3)cc2)cc1`: affinity was put at a Ki of 316 nM. Against the preceding molecule, the Ki is about 13-fold lower.
To `CS(=O)(=O)Nc1ccc(Sc2ccc(NC3=NCCN3)cc2)cc1` belongs 79 nM.
As to `O=[N+]([O-])c1ccc(Sc2ccc(NC3=NCCN3)cc2)cc1`, the affinity corresponds to a Ki of 316 nM.
The value for `Clc1ccc(Sc2ccc(CNC3=NCCN3)cc2)cc1` was 501 nM; that for `COc1ccc(Sc2ccc(NC3=NCCCCN3)cc2)cc1` was 1260 nM.
In the case of `FC(F)(F)c1ccc(Sc2ccc(NC3=NCCN3)cc2)cc1`, the Ki was 50 nM.
Take `COc1ccc(Sc2ccc(C(=N)N)cc2)cc1`: affinity was put at a Ki of 1260 nM.
Take `CC/N=C(\N)Nc1ccc(Sc2ccc(Cl)cc2)cc1`: the inhibition constant (Ki) was determined as 631 nM.
For the molecule `COc1ccc(-c2ccc(NC3=NCCN3)cc2)cc1`, the affinity, expressed as Ki, was 1000 nM.
Turning to `COc1ccc(Sc2ccccc2NC2=NCCN2)cc1`, the Ki was 631 nM. Compared with the last molecule, the Ki is about 1.6-fold lower.
Molecule `CC(C)(C)c1ccc(Sc2ccc(NC3=NCCN3)cc2)cc1` returned a Ki of 398 nM.
As to `COc1ccc(OC)c(Sc2ccc(NC3=NCCN3)cc2)c1`, affinity was put at a Ki of 794 nM.
For the molecule `CC(C)Oc1ccc(Sc2ccc(NC3=NCCN3)cc2)cc1`, the Ki turned out to be 32 nM.
`COc1ccc(Sc2cccc(NC3=NCCN3)c2)cc1` showed a Ki of 3980 nM. This Ki lies about 120-fold higher than the previous one.
To `CCOC(=O)c1ccc(Sc2ccc(NC3=NCCN3)cc2)cc1` belongs 50 nM; to `COc1ccc(Sc2ccc(NC3=NC(C)(C)CN3)cc2)cc1`, 631 nM; to `Clc1ccc(Sc2ccc(NC3=NCCN3)cc2)cc1`, 79 nM.
`COc1ccc(Oc2ccc(NC3=NCCN3)cc2)cc1` displayed a Ki of 158 nM.
As for `CCOc1ccc(Sc2ccc(NC3=NCCN3)cc2)cc1`, the affinity corresponds to a Ki of 40 nM.
Molecule `COc1ccc(Sc2ccc(CC3=NCCN3)cc2)cc1` registered a Ki of 5010 nM.
For the molecule `COc1cccc(Sc2ccc(NC3=NCCN3)cc2)c1`, the affinity corresponds to a Ki of 398 nM. Against the preceding molecule, the Ki is about 13-fold lower.
As for `COc1ccc(Sc2ccc(NC3=NCCCN3)cc2)cc1`, the affinity corresponds to a Ki of 79 nM. Against the preceding molecule, the Ki is about 5-fold lower.
The molecule `CC(C)c1ccc(Sc2ccc(NC3=NCCN3)cc2)cc1` registered a Ki of 251 nM.
On to `c1ccc2c(c1)sc1ccc(NC3=NCCN3)cc12`, for which the Ki turned out to be 3160 nM.

Values taken from BindingDB's records for doi:10.1016/j.bmcl.2003.10.070 (Roche Palo Alto, 2004).
